Measurements: US5644055A, “Antihypertensive tricyclic azepine derivatives useful as inhibitors of enkephalinase and ACE” (Ciba-Geigy Corporation, priority 1995, dated 1997)

Experiments:
[1] = biological target: T1, neutral endopeptidase (NEP, EC 3.4.24.11) (Rattus norvegicus, UniProt P07861); assay: in vitro inhibition of neutral endopeptidase (GAAP in vitro assay); format: biochemical; conditions: rat kidney cortex membranes, 500 μM glutaryl-Ala-Ala-Phe-2-naphthylamide, pH 7.4, 10 minutes at 25° C.
T1 construct: rat kidney cortex membranes; from tissue; host or cells: rat kidney cortex membranes
T1 sequence (P07861 1-750): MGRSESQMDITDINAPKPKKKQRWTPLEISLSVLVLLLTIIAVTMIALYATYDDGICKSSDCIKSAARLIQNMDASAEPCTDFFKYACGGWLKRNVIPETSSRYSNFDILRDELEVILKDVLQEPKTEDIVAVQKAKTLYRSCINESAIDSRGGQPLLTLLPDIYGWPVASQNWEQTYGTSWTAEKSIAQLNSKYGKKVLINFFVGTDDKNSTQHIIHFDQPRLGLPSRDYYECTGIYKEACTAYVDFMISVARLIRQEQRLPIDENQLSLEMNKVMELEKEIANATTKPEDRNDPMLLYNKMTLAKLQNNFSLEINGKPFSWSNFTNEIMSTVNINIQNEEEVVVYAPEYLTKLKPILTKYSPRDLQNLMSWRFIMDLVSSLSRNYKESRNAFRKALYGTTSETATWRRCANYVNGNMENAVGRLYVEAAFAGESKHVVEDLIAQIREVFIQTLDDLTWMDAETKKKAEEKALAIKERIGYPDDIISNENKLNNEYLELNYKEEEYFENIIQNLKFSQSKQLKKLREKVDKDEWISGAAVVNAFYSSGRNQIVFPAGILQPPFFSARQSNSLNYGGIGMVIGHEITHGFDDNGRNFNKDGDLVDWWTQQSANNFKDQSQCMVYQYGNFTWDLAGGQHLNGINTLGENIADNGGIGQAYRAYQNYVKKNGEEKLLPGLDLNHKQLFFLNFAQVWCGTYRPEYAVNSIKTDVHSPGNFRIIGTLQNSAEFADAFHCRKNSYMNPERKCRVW
Description: (§1) In vitro testing is most appropriate for the free carboxylic acids of the invention. The test compound is dissolved in dimethyl sulfoxide, ethanol, or 0.25M sodium bicarbonate solution, and the solution is diluted with buffer to the desired concentration.
The in vitro inhibition of neutral endopeptidase (NEP, EC 3.4.24.11) can be determined as follows:
Neutral endopeptidase 3.4.24.11 activity is determined by the hydrolysis of the substrate glutaryl-Ala-Ala-Phe-2-naphthylamide (GAAP) using a modified procedure of Orlowski and Wilk (1981). The incubation mixture (total volume 125 μl) contains 4.2 μg of protein (rat kidney cortex membranes prepared by method of Maeda et at, 1983), 50 mM tris buffer, pH 7.4 at 25° C., 500 μM substrate (final concentration), and leucine aminopeptidase M (2.5 μg). The mixture is incubated for 10 minutes at 25° C. and 100 μl of fast garnet (250 μg fast garnet/ml of 10% Tween 20 in 1M sodium acetate, pH 4.2) is added. Enzyme activity is measured spectrophotometrically at 540 nm. One unit of NEP 24.11 activity is defined as 1 nmol of 2-naphthylamine released per minute at 25° C. at pH 7.4. IC50 values are determined, i.e. the concentration of test compound required for 50% inhibition of the release of 2-naphthylamine.

[2] = biological target: T2, angiotensin-converting enzyme (Oryctolagus cuniculus, UniProt P12822); assay: in vitro inhibition of the angiotensin-converting enzyme (hippuryl-histidyl-leucine substrate); format: biochemical; conditions: pH 8.3, 30 minutes at 37° C., read-out: IC50, inhibiting ACE in vitro assay
T2 sequence (P12822 34-1310): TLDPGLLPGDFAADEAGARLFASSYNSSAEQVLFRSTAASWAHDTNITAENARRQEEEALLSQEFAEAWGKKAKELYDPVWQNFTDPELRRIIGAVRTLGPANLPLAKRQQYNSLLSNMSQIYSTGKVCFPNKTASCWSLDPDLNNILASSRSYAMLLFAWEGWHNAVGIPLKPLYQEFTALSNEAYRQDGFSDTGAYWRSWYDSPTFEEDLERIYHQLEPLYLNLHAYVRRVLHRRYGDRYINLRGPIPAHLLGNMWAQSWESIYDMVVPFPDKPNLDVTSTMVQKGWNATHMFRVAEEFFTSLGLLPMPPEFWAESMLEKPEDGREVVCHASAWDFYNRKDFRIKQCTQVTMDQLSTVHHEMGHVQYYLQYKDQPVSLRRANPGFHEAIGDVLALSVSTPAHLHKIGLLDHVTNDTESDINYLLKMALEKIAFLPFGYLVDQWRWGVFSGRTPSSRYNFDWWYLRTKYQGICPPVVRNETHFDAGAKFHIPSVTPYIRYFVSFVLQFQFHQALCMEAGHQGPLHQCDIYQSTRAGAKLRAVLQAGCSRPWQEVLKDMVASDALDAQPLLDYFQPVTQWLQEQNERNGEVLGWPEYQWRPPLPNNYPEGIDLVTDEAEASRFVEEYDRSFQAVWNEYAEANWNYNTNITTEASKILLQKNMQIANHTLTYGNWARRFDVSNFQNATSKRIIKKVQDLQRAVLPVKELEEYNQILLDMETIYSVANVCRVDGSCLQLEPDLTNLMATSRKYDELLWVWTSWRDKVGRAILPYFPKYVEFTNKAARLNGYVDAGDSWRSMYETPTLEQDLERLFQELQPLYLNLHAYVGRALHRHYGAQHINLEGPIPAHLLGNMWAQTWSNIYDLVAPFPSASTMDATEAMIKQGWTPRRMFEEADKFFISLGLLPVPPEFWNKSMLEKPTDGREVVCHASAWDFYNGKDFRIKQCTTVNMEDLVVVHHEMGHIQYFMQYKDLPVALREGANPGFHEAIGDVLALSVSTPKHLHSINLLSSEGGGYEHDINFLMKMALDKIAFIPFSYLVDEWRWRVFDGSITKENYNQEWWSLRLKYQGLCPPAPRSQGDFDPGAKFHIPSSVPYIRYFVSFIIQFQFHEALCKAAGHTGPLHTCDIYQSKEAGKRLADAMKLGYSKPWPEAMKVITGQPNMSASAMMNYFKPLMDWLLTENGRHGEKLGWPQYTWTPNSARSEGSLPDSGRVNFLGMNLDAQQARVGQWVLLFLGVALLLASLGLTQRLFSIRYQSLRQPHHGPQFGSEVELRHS
Description: as §1
The buffer for the ACE assay is 300 mM NaCl, […] KH2 PO4 (pH 8.3). The reaction is initiated by the addition of 100 μl of hippuryl-histidyl-leucine (2 mg/ml) to tubes containing enzyme and drug in a volume of 150 μl and tubes are incubated for 30 minutes at 37° C. The reaction is terminated by the addition of 0.75 ml 0.6N NaOH. 100 μl of freshly prepared O-pthaldehyde solution (2 mg/ml in methanol) is added to the tubes, the contents are mixed and allowed to stand at room temperature. After 10 minutes, 100 μl of 6N HCl is added. The tubes are centrifuged and the supernatant optical density is read at 360 nm. The results are plotted against drug concentration to determine the IC50, i.e., the drug concentration which gives half the activity of the control sample containing no drug.

Q: What does the source list for `O=C(N[C@H]1CCc2cccc3c2N(C1=O)[C@H](C(=O)O)C3)[C@@H](S)Cc1ccccc1` [2(a), 5-[((S)-2-mercapto-3-phenylpropionyl)-(S)-amino]-1,2,4,5,6,7-hexahydroazepino[3,2,1-hi]indole-4-one-2-(S)-carboxylic acid]?
A: IC50 [1]: ~50 nM; IC50 [2]: ~30 nM

Q: For `CC(C)[C@H](S)C(=O)N[C@H]1CCc2cccc3c2N(C1=O)[C@H](C(=O)O)C3` [5(a), 5-[((S)-2-mercapto-3-methylbutanoyl)-(S)-amino]-1,2,4,5,6,7-hexahydro-azepino[3,2,1-hi]indole-4-one-2-(S)-carboxylic acid], which IC50 [2] is on record?
A: The IC50 was ~30 nM.

Q: For `O=C(N[C@H]1CCc2cccc3c2N(C1=O)[C@H](C(=O)O)C3)[C@@H](CS)Cc1ccc(-c2ccccc2)cc1` [6(b), 5-[((S)-2-biphenyl-4-ylmethyl-3-mercapto-propionyl)-(S)-amino]-1,2,4,5,6,7-hexahydroazepino[3,2,1-hi]indole-4-one-2-(S)-carboxylic acid], which IC50 [1] is on record?
A: Its IC50 is ~15 nM.

Q: What about the IC50 [2] of the same compound?
A: The IC50 was ~77 nM.
